For experiment [1], the target named is BTK protein in human whole blood (Homo sapiens (Human), UniProt Q06187). Kind of experiment: Btk protein in human whole blood MSD ELISA based assay (Btk degradation). Type of experiment: cell-based. The conditions noted are these: human whole blood from healthy donors, 6 hours at 37° C., half maximal degradation concentration; read-out: hWB BTK DC50. On the procedure: Btk protein degradation was tested using an Meso Scale Discovery-ELISA system (MSD-ELISA): (1) Test compounds were added to human whole blood; (2) human whole blood cells treated with test compounds were lysed; (3) lysed cells were treated with capture antibody, an antibody to Btk; (4) lysed cells were treated with […] to Btk; and (5) lysed cells were treated with anti-mouse antibody (tagged).
Specifically, about 80 μl of fresh human whole blood from healthy donors was transferred into each well of a 96-well V-bottom plate (Costar, Cat No.3894). Using a TECANTM D300e Digital Dispenser (Tecan)), 1:4 serially diluted compounds [(8 pt assay) in DMSO solution (final 0.2%) starting at 3 μM top concentration], were added in duplicate. Thereafter, plates were placed in a 37° C. incubator and incubated for 6 hours.
At the end of incubation, 80 μl of 2× CST lysis buffer (Cell Signaling Technology, Cat No. 9803), prepared from a 10× stock solution, was added per well to lyse the blood. Plates were then sealed with a plate sealer and the samples were frozen overnight at −80° C.
Total amount of BTK protein remaining in the blood samples after compound treatment was measured using MSD-ELISA. After thawing the frozen plates, blood lysates were mixed thoroughly and transferred to small spot high-bind MSD plates (Meso Scale Discovery, Cat No. L45XB-3) and coated with capturing antibody, rabbit anti-human BTK (D3H5) (Cell Signaling Technology, Cat No. 8547CF). Thereafter, primary detection antibody, mouse anti-human BTK monoclonal antibody, (BD Biosciences, Cat No. 611117) and secondary detection antibody, anti-mouse SULFO-TAG (Meso Scale Discovery, Cat No. R32AC-1) were added. The assay plates were read on an MSD S600 plate reader by the addition of 2× MSD read buffer (Meso Scale Discovery, R92TC-1). All reagent transfers, including blood lysis, was conducted using a Biomed i7 liquid handler. From the dose response curves, DC50 values were calculated by averaging data from duplicate experiments. and Curve fitting was done by non-linear regression using GraphPad Prism. The DC50 values are reported in Table 2 in the hWB BTK DC50 (nM) column The Dmax values represent the maximum amount of BTK degradation observed upon compound treatment compared to DMSO only treated samples. The dMax (%) values are reported in Table 2 in the hWB BTK dMax (%) column.

In experiment [2] the target is Human BTK enzyme, wild-type (Homo sapiens (Human), UniProt Q06187). Kind of experiment: BTK Screening: Btk kinase activity, electrophoretic mobility shift assay (MSA). Type of experiment: biochemical. The conditions noted are these: 0.5 nM BTK enzyme, 50 μM ATP, 15 minutes pre-incubation, 3 hours at 25° C. As to the method:
Btk kinase activity was measured in vitro using an electrophoretic mobility shift assay (MSA). The ability of Btk to phosphorylate a fluorescent peptide substrate (FAM-GEEPLYWSFPAKKK-NH2) was measured. The kinase reactions were assembled in a total volume of 25 μL per well in 384 well plates. The following was added to each well: compound buffer (or control); enzyme buffer; and substrate buffer, as further described below.
Specifically the following was added: (1) compound buffer or control: 5μL of 5× compound buffer [(5× compound buffer comprised of: 1× Master Buffer, X μM test compound in 5% dimethyl sulfoxide; (2× Master Buffer comprised of 200 mM HEPES, pH7.5, 0.2% BSA, and 0.02% Triton X-100)]; and (2) enzyme buffer: 10 μL of 2.5× enzyme buffer (1× Master Buffer, 12.5 mM MgCl2, 2.5 mM DTT, 25 μM sodium orthovanadate, 25 μM beta-glycerophosphate, and 1.25 nM BTK enzyme). Human BTK enzyme Nanosyn-293HEK, wild-type, available from Nanosyn, Santa Clara, CA). Enzyme and compound were pre-incubated for 15 minutes. Additionally, the following was added: (3) substrate buffer: 10 μL of 2.5× substrate buffer (1× Master Buffer, […], and 2.5 μM of the peptide substrate FAM). Each plate was incubated at 25° C. for 3 hours. The reaction was terminated by adding to each well: 45 μL of 1.55× stop buffer (1× Master Buffer and 31 mM EDTA). The final reaction mixture was as follows: 100 mM HEPES, pH7.5; 0.1% BSA; 0.01% Triton X-100; 1 mM DTT; 5 mM MgCl2; 10 μM sodium orthovanadate; 10 μM beta-glycerophosphate; 50 μM ATP; 1% dimethyl sulfoxide (from compound); 1μM fluorescent peptide substrate and 0.5 nM BTK- enzyme. The terminated reactions were analyzed using a 12 channel LABCHIP® 3000 microfluidic detection instrument (available from Caliper Life Sciences, Waltham, MA). […] As substrate and product peptides were separated, two peaks of fluorescence were observed. Change in the relative fluorescence intensity of the substrate and product peaks was the parameter measured, reflecting enzyme activity. In the presence of an active compound, the ratio between product and substrate was altered. The signal of the product decreased, while the signal of the substrate increased. Capillary electrophoregrams (RDA acquisition files) were analyzed using HTS Well Analyzer software (available from Caliper Life Sciences, Waltham, MA).
Activity in each sample was determined as the product to sum ratio (PSR): P/(S+P), where P was the peak height of the product peptide and S was the peak height of the substrate peptide. For each compound, enzyme activity was measured at various concentrations (12 concentrations of compound spaced by 3× dilution intervals). Negative control samples (0% inhibition in the absence of an active compound) and positive control samples (100% inhibition, in the presence of 20 mM EDTA) were assembled in replicates of four and were used to calculate % inhibition values for each active compound at each concentration. Percent inhibition (Pinh) was determined using following equation: Pinh=(PSR0%−PSRinh)/(PSR0%−PSR100%)*100, where PSRinh was the product sum ratio in the presence of inhibitor, PSR0% was the average product sum ratio in the absence of active compound and PSR100% was the average product sum ratio in 100%-inhibition control samples.
The IC50 values of active compounds were determined by 4 parameter sigmoidal dose response model fitting of the inhibition curves (Pinh versus inhibitor concentration) using XLfit® 4 software (IDBS, Boston, MA). The IC50 values are reported in Table 2 in the BTK IC50 (nM) column.

Sequence of BTK protein in human whole blood (Q06187 whole entry): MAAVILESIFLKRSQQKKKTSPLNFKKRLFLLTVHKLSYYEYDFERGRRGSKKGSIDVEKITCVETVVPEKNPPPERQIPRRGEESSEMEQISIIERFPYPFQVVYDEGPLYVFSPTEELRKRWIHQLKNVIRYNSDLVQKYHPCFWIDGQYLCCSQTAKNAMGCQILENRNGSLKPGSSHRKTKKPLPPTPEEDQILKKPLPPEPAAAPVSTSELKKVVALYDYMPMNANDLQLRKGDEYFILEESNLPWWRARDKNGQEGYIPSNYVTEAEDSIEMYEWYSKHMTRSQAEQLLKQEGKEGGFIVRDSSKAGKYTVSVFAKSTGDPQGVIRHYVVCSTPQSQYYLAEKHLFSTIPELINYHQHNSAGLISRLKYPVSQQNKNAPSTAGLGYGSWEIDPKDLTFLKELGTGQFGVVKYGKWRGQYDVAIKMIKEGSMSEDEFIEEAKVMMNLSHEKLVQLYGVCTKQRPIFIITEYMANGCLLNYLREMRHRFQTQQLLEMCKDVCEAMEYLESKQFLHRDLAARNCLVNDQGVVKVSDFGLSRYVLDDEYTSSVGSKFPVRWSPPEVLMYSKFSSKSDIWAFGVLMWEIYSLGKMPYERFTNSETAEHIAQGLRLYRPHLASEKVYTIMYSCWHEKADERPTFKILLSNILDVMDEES
Sequence of Human BTK enzyme, wild-type (Q06187 whole entry): as above

`Cc1cc(-c2cc(Nc3ccc(N4CCN(CCc5ccc(N6CCC(=O)NC6=O)cc5)C[C@@H]4C)cn3)ncn2)ccc1[C@@H](C)NC(=O)c1nc(C(C)(C)C)no1` [Example 1, 3-tert-butyl-N-[(1R)-1-{4-[6-({5-[(2S)-4-{2-[4-(2,4-dioxo-1,3-diazinan-1-yl)phenyl]ethyl}-2-methylpiperazin-1-yl]pyridin-2-yl}amino)pyrimidin-4-yl]-2-methylphenyl}ethyl]-1,2,4-oxadiazole-5-carboxamide]: in experiment [1], the DC50 was determined as 4.08 nM. Moreover, the IC50 in experiment [2] came out at 0.0977 nM.

Regarding `Cc1cc(-c2cc(Nc3ccc(N4CCN(CCc5ccc(N6CCC(=O)NC6=O)cc5)C[C@H]4C)cn3)ncn2)ccc1[C@@H](C)NC(=O)c1nc(C(C)(C)C)no1` [Example 2, 3-tert-butyl-N-[(1R)-1-{4-[6-({5-[(2R)-4-{2-[4-(2,4-dioxo-1,3-diazinan-1-yl)phenyl]ethyl}-2-methylpiperazin-1-yl]pyridin-2-yl}amino)pyrimidin-4-yl]-2-methylphenyl}ethyl]-1,2,4-oxadiazole-5-carboxamide], the DC50 in experiment [1] came to 5.93 nM. The IC50 in experiment [2] was found to be 0.128 nM.

With `Cc1cc(-c2cc(Nc3ccc(N4CCN(CCc5ccc(N6CCC(=O)NC6=O)cc5)CC4)cn3)ncn2)ccc1[C@@H](C)NC(=O)c1nc(C(C)(C)C)no1` [Example 3, 3-tert-butyl-N-{(1R)-1-[4-(6-{[5-(4-{2-[4-(2,4-dioxo-1,3-diazinan-1-yl)phenyl]ethyl}piperazin-1-yl)pyridin-2-yl]amino}pyrimidin-4-yl)-2-methylphenyl]ethyl}-1,2,4-oxadiazole-5-carboxamide], the DC50 in experiment [1] stood at 2.88 nM. Also, the IC50 in experiment [2] came out at 0.0339 nM.

As for `Cc1cc(-c2cc(Nc3ccc(N4CCN(CCc5ccc(N6CCC(=O)NC6=O)c(F)c5)C[C@@H]4C)cn3)ncn2)ccc1[C@@H](C)NC(=O)c1nc(C(C)(C)C)no1` [Example 4, 3-tert-butyl-N-[(1R)-1-{4-[6-({5-[(2S)-4-{2-[4-(2,4-dioxo-1,3-diazinan-1-yl)-3-fluorophenyl]ethyl}-2-methylpiperazin-1-yl]pyridin-2-yl}amino)pyrimidin-4-yl]-2-methylphenyl}ethyl]-1,2,4-oxadiazole-5-carboxamide], the DC50 in experiment [1] was determined as 7.62 nM. Further, the IC50 in experiment [2] was 0.141 nM.

For `Cc1cc(-c2cc(Nc3ccc(N4CCN(CCc5ccc(N6CCC(=O)NC6=O)c(F)c5)C[C@H]4C)cn3)ncn2)ccc1[C@@H](C)NC(=O)c1nc(C(C)(C)C)no1` [Example 5, 3-tert-butyl-N-[(1R)-1-{4-[6-({5-[(2R)-4-{2-[4-(2,4-dioxo-1,3-diazinan-1-yl)-3-fluorophenyl]ethyl}-2-methylpiperazin-1-yl]pyridin-2-yl}amino)pyrimidin-4-yl]-2-methylphenyl}ethyl]-1,2,4-oxadiazole-5-carboxamide], the DC50 in experiment [1] is 6 nM. The IC50 in experiment [2] is 0.113 nM.

On to `CC[C@H]1CN(CCc2ccc(N3CCC(=O)NC3=O)cc2)CCN1c1ccc(Nc2cc(-c3ccc([C@@H](C)NC(=O)c4nc(C(C)(C)C)no4)c(C)c3)ncn2)nc1` [Example 6, 3-tert-butyl-N-[(1R)-1-{4-[6-({5-[(2S)-4-{2-[4-(2,4-dioxo-1,3-diazinan-1-yl)phenyl]ethyl}-2-ethylpiperazin-1-yl]pyridin-2-yl}amino)pyrimidin-4-yl]-2-methylphenyl}ethyl]-1,2,4-oxadiazole-5-carboxamide], for which, in experiment [1], the DC50 came to 2.45 nM. Also, the IC50 in experiment [2] was 0.0403 nM.

For the compound `CC[C@H]1CN(CCc2ccc(N3CCC(=O)NC3=O)c(F)c2)CCN1c1ccc(Nc2cc(-c3ccc([C@@H](C)NC(=O)c4nc(C(C)(C)C)no4)c(C)c3)ncn2)nc1` [Example 7, 3-tert-butyl-N-[(1R)-1-{4-[6-({5-[(2S)-4-{2-[4-(2,4-dioxo-1,3-diazinan-1-yl)-3-fluorophenyl]ethyl}-2-ethylpiperazin-1-yl]pyridin-2-yl}amino)pyrimidin-4-yl]-2-methylphenyl}ethyl]-1,2,4-oxadiazole-5-carboxamide], in experiment [1], the DC50 is 18.7 nM. For the same compound, the half-inhibitory concentration (IC50) in experiment [2] worked out at 0.0979 nM.

As to `CC[C@@H]1CN(CCc2ccc(N3CCC(=O)NC3=O)cc2)CCN1c1ccc(Nc2cc(-c3ccc([C@@H](C)NC(=O)c4nc(C(C)(C)C)no4)c(C)c3)ncn2)nc1` [Example 8, 3-tert-butyl-N-[(1R)-1-{4-[6-({5-[(2R)-4-{2-[4-(2,4-dioxo-1,3-diazinan-1-yl)phenyl]ethyl}-2-ethylpiperazin-1-yl]pyridin-2-yl}amino)pyrimidin-4-yl]-2-methylphenyl}ethyl]-1,2,4-oxadiazole-5-carboxamide], the DC50 in experiment [1] was 4.04 nM. The IC50 in experiment [2] was 0.0804 nM.

Consider `Cc1cc(-c2cc(Nc3ccc(N4CCN(CCc5ccc(N6CCC(=O)NC6=O)cc5)CC4(C)C)cn3)ncn2)ccc1[C@@H](C)NC(=O)c1nc(C(C)(C)C)no1` [Example 9, 3-tert-butyl-N-{(1R)-1-[4-(6-{[5-(4-{2-[4-(2,4-dioxo-1,3-diazinan-1-yl)phenyl]ethyl}-2,2-dimethylpiperazin-1-yl)pyridin-2-yl]amino}pyrimidin-4-yl)-2-methylphenyl]ethyl}-1,2,4-oxadiazole-5-carboxamide], for which the DC50 in experiment [1] amounted to 9.61 nM. For the same compound, the IC50 in experiment [2] was found to be 0.0988 nM.

In the case of `Cc1cc(-c2cc(Nc3ccc(N4CCN(CCc5ccc(N6CCC(=O)NC6=O)cc5)CC4)cn3)ncn2)c(F)cc1[C@@H](C)NC(=O)c1nc(C(C)(C)C)no1` [Example 12, 3-tert-butyl-N-{(1R)-1-[4-(6-{[5-(4-{2-[4-(2,4-dioxo-1,3-diazinan-1-yl)phenyl]ethyl}piperazin-1-yl)pyridin-2-yl]amino}pyrimidin-4-yl)-5-fluoro-2-methylphenyl]ethyl}-1,2,4-oxadiazole-5-carboxamide], the 50% degradation concentration (DC50) in experiment [1] was determined as 2.27 nM. Also, the IC50 in experiment [2] was determined as 0.0363 nM.
